# Measured values taken from patent US20260249027A1, “METERED DOSE INHALERS AND HIGH-DOSE SUSPENSIONS” (Kindeva Drug Delivery L.P., priority 2023, published 2026).
# Assays:
# Format in all cases: physicochemical
# [1] = Through life dose consistency of sodium cromoglycate pMDI suspensions (USP <601>, apparatus A)
# Protocol: (§1) In the following examples, dose consistency was determined by in vitro measurement of single actuation dose content at start, middle and end of pMDI unit life in line with U.S. Pharmacopeia (USP)<601>, using a flow rate of 28.3 L/min and apparatus A. Aerodynamic particle size distribution of the pMDI suspension aerosols was measured at start of unit life in line with U.S. Pharmacopeia (USP)<601> using a Next Generation impactor without pre-separator (apparatus 6) and a flow rate of 30 L/min.
# (§2) A first set of suspensions included no ethanol. A second set of suspensions included 2% ethanol by weight.
# (§3) In total, ten suspension pMDI formulations were prepared in triplicate with sufficient fill weight to provide 60 actuations. Each suspension was filled into Kindeva FEP coated canisters, crimped with a Kindeva 50-μL valve. Each pMDI unit was sonicated for at least 10 minutes to disperse the suspended drug and tested with a Kindeva actuator having an exit orifice diameter (EOD) of 0.4 mm.
# [2] = Aerodynamic particle size measurement of sodium cromoglycate pMDI suspensions (Next Generation impactor)
# Description: (§4) In general, aerosols with mass median aerodynamic diameters (MMAD) of at least 1 μm but less than 5 μm in size are suitable for effective deep lung deposition for therapeutic effect. Herein, fine particle fraction (FPF) is defined as the percentage of the ex-actuator delivered API having a MMAD of less than 5 μm when tested in vitro. Herein, “ex-actuator” delivered dose is used to describe the amount of API delivered past the actuator of a pMDI. Therefore, an aerosol with a high FPF is typically suitable for deep lung deposition.
# as §1, §2
# as §3, with “mm” for “mm.”
# (§5) The mass median aerodynamic diameter (MMAD) and fine particle fraction (FPF) of each pMDI unit were measured by Next Generation cascade impaction (N=3) for each pMDI suspension.
# [3] = Aerodynamic particle size measurement of salbutamol sulfate pMDI suspensions (Next Generation impactor)
# Description: as §4, §1
# as §3, with “six” for “ten”
# as §5
# [4] = nominal ex-valve 0.5 mg/act, HFA-152a
# [5] = nominal ex-valve 0.5 mg/act, HFA-152a/2% EtOH (w/w)
# [6] = nominal ex-valve 0.5 mg/act, HFO-1234ze(E)
# [7] = nominal ex-valve 0.5 mg/act, HFO-1234ze(E)/2% EtOH (w/w)
# [8] = nominal ex-valve 1.0 mg/act, HFA-152a
# [9] = nominal ex-valve 1.0 mg/act, HFA-152a/2% EtOH (w/w)
# [10] = nominal ex-valve 1.0 mg/act, HFO-1234ze(E)
# [11] = nominal ex-valve 1.0 mg/act, HFO-1234ze(E)/2% EtOH (w/w)
# [12] = nominal ex-valve 2.0 mg/act, HFA-152a
# [13] = nominal ex-valve 2.0 mg/act, HFO-1234ze(E)
compound,measurement,setting,value
O=C(O)c1cc(=O)c2c(OCC(O)COc3cccc4oc(C(=O)O)cc(=O)c34)cccc2o1 [sodium cromoglycate],effect of addition of ethanol on through unit life ex-actuator delivered dose consistency,"[1]; 2% ethanol by weight, HFA-152a or HFO-1234ze(E)",did not always substantially improve
same,through unit life ex-actuator delivered dose consistency,[1]; HFA-152a or HFO-1234ze(E) with and without 2% ethanol by weight,relatively consistent
same,MoL mean delivered dose,[1]; [4],363.8 μg/act
same,SoL mean delivered dose,[1]; [4],611.8 μg/act
same,TL mean delivered dose,[1]; [4],427.8 μg/act
same,EoL mean delivered dose,[1]; [5],313.6 μg/act
same,MoL mean delivered dose,[1]; [5],331.6 μg/act
same,SoL mean delivered dose,[1]; [5],675.8 μg/act
same,TL mean delivered dose,[1]; [5],440.3 μg/act
same,EoL mean delivered dose,[1]; [6],158.7 μg/act
same,MoL mean delivered dose,[1]; [6],354.1 μg/act
same,SoL mean delivered dose,[1]; [6],419.4 μg/act
same,TL mean delivered dose,[1]; [6],310.7 μg/act
same,EoL mean delivered dose,[1]; [7],315.4 μg/act
same,MoL mean delivered dose,[1]; [7],332.8 μg/act
same,SoL mean delivered dose,[1]; [7],940.2 μg/act
same,TL mean delivered dose,[1]; [7],529.5 μg/act
same,EoL mean delivered dose,[1]; [8],618.4 μg/act
same,MoL mean delivered dose,[1]; [8],931.3 μg/act
same,SoL mean delivered dose,[1]; [8],950.3 μg/act
same,TL mean delivered dose,[1]; [8],833.3 μg/act
same,EoL mean delivered dose,[1]; [9],847.0 μg/act
same,MoL mean delivered dose,[1]; [9],906.3 μg/act
same,SoL mean delivered dose,[1]; [9],1027.9 μg/act
same,TL mean delivered dose,[1]; [9],927.0 μg/act
same,EoL mean delivered dose,[1]; [10],695.5 μg/act
same,MoL mean delivered dose,[1]; [10],784.8 μg/act
same,SoL mean delivered dose,[1]; [10],967.3 μg/act
same,TL mean delivered dose,[1]; [10],815.9 μg/act
same,EoL mean delivered dose,[1]; [11],735.1 μg/act
same,MoL mean delivered dose,[1]; [11],917.0 μg/act
same,SoL mean delivered dose,[1]; [11],876.4 μg/act
same,TL mean delivered dose,[1]; [11],842.9 μg/act
same,EoL mean delivered dose,[1]; [12],1694.4 μg/act
same,MoL mean delivered dose,[1]; [12],1590.1 μg/act
same,SoL mean delivered dose,[1]; [12],1782.4 μg/act
same,TL mean delivered dose,[1]; [12],1689.0 μg/act
same,EoL mean delivered dose,[1]; [13],119.8 μg/act
same,MoL mean delivered dose,[1]; [13],879.1 μg/act
same,SoL mean delivered dose,[1]; [13],2009.3 μg/act
same,TL mean delivered dose,[1]; [13],1255.0 μg/act
same,"MMAD values of aerosols, suitability","[2]; HFA-152a or HFO-1234ze(E), with and without ethanol, in-vitro",in an appropriate respirable range
same,FPF and MMAD without ethanol compared with corresponding suspensions with 2% ethanol by weight,"[2]; HFA-152a or HFO-1234ze(E), all nominal doses",consistently produced greater FPFs and smaller MMADs
same,Mean FPF,[2]; [4],33.0%
same,Mean MMAD,[2]; [4],3.59 μm
same,Mean FPF,[2]; [5],29.5%
same,Mean MMAD,[2]; [5],3.92 μm
same,Mean FPF,[2]; [6],41.3%
same,Mean MMAD,[2]; [6],3.41 μm
same,Mean FPF,[2]; [7],34.1%
same,Mean MMAD,[2]; [7],3.77 μm
same,Mean FPF,[2]; [8],28.2%
same,Mean MMAD,[2]; [8],3.85 μm
same,Mean FPF,[2]; [9],25.2%
same,Mean MMAD,[2]; [9],4.38 μm
same,Mean FPF,[2]; [10],34.7%
same,Mean MMAD,[2]; [10],3.72 μm
same,Mean FPF,[2]; [11],30.9%
same,Mean MMAD,[2]; [11],4.13 μm
same,Mean FPF,[2]; [12],24.7%
same,Mean MMAD,[2]; [12],4.39 μm
same,Mean FPF,[2]; [13],30.7%
same,Mean MMAD,[2]; [13],4.23 μm
same,FPF and MMAD in HFO-1234ze(E) compared with corresponding suspensions in HFA-152a,[2]; with or without ethanol,consistently produced greater FPFs and generally smaller MMADs
salbutamol sulfate,"MMAD values of aerosols, suitability","[3]; HFA-152a or HFO-1234ze(E), in-vitro",in an appropriate respirable range
same,FPF and MMAD in HFO-1234ze(E) compared with corresponding suspensions in HFA-152a,[3]; no ethanol,consistently produced greater FPFs and smaller MMADs
same,Mean FPF,[3]; [4],45.6%
same,Mean MMAD,[3]; [4],2.98 μm
same,Mean FPF,[3]; [6],57.0%
same,Mean MMAD,[3]; [6],2.98 μm
same,Mean FPF,[3]; [8],40.8%
same,Mean MMAD,[3]; [8],3.30 μm
same,Mean FPF,[3]; [10],52.4%
same,Mean MMAD,[3]; [10],3.12 μm
same,Mean FPF,[3]; [12],30.3%
same,Mean MMAD,[3]; [12],3.92 μm
same,Mean FPF,[3]; [13],36.4%
same,Mean MMAD,[3]; [13],3.67 μm
